# Reference: patent publication US12239645B2, “Targeted dosing for the treatment of complement mediated disorders” (Achillion Pharmaceuticals, Inc., priority 2018, dated 2025)
# Where two headings read alike, the source gives them in different places.
# How the values were obtained:
# [1] = test system: complement alternative pathway (AP) activity; experiment: Steady-state / PK-PD modeling of AP inhibition versus plasma concentration; set-up: species or system human
# Procedure: Based on the ex vivo AP inhibition assay, a steady state model was prepared comparing the % inhibition of Ap based on drug plasma concentration. […] Therefore, Compound 1 is shown to be potent while still having improved safety margins that may allow for better dosing flexibility.
# [2] = test system: complement alternative pathway (AP) functional activity; experiment: SAD study: alternative pathway functional activity by AP Wieslab assay; assay type: in vivo, human
# Procedure: (§1) […] were dosed and evaluated in 4 dose groups with ten subjects receiving placebo (Table 1). The first dose group had 6 active and 6 placebo subjects; subsequent groups had 6 active and 2 placebo subjects each. Each group was followed for 28 days after dosing. All subjects were monitored for safety through the last scheduled visit at Day 28. Blood and urine samples were collected at predefined time points from Days 1 to 4 to determine plasma and urine concentrations of Compound 1 and from Days 1 to 7 to determine complement related activities. Results of serum AP activity measured by AP Wieslab assay as well as plasma Bb, factor D level and several other PD biomarkers were determined.
# For all subjects, blood samples were collected at specific protocol-defined time points from Day 1 to 7 to determine serum AP activity ex vivo using AP hemolysis assay and AP Wieslab assay.
# A graphical display of mean complement AP functional activity (% relative to positive control) through Day 7 (reported in days) and within 24 hours of dosing (by randomized treatment group and overall) can be found in FIG. 8B and FIG. 8A, respectively.
# [3] = Phase I single ascending dose (SAD) study: plasma and urine pharmacokinetics; assay type: in vivo, human; conditions: for Aeu(%), GM / Aeu(%), Mean: percentage of dose
# Procedure: A single ascending dose (SAD) study was the first-in-human study of Compound 1. […] Secondary objectives included evaluation of the pharmacokinetic (PK) profile and the relationship between Compound 1 PK and pharmacodynamic (PD) characteristics, that is, the inhibition of complement alternative pathway (AP) activity (PK/PD).
# as §1
# For the 18 subjects comprising the Groups 1-3 SAD PK population, a total of 306 plasma samples (17 samples from each subject collected pre-dose and 0.5, 1, 1.5, 2, 2.5, 3, 4, 6, 8, 10, 12, 16, 24 [Day 2], 48 [Day 3], 72 [Day 4], and 144 [Day 7] hours post-dose) were available for PK determination in plasma.
# Single ascending doses of Compound 1 were evaluated to determine plasma and urine PK parameters over the dose range of 40 mg to 120 mg studied. Summary statistics for plasma and urine Compound 1 concentration at each nominal sampling time point are presented by randomized treatment group in Table 2.
# [4] = 40 mg single dose, fasted, plasma
# [5] = 40 mg single dose, fasted, urine
# [6] = 80 mg single dose, fasted, plasma
# [7] = 80 mg single dose, fasted, urine
# [8] = 120 mg single dose, fasted, plasma
# [9] = 120 mg single dose, fasted, urine
smiles,measurement,setting,value
"CC(=O)c1nn(CC(=O)N2[C@H](C(=O)Nc3nc(Br)ccc3C)C[C@@]3(C)C[C@@H]23)c2ccc(-c3cnc(C)nc3)cc12 [Compound 1, (1R,3S,5R)-2-(2-(3-acetyl-5-(2-methylpyrimidin-5-yl)-1H-indazol-1-yl)acetyl)-N-(6-bromo-3-methylpyridin-2-yl)-5-methyl-2-azabicyclo[3.1.0]hexane-3-carboxamide]",inhibition of AP activity,[1]; at Ctrough of 65 ng/mL to 95 ng/mL,greater than 85%
same,AP inhibition,[1]; at Ctrough of about 88 ng/mL,> 90%
same,AP inhibition,[1]; at Ctrough of about 67-88 ng/mL,greater than 90%
same,EC90 (plasma concentration providing about 90% AP activity inhibition),[1]; modeling,67 to 88 ng/mL
same,IC90 of AP activity (Ctrough for 90% inhibition),"[1]; steady-state modeling from SAD ex vivo AP inhibition, FIG. 10",about 67 ng/mL
same,time mean inhibition of 90% or greater maintained post-dosing,[2]; 40 mg dose group,at least 6 hours
same,time of nadir in AP functional activity post-dose,[2]; 40 mg dose group,1.5 h
same,lowest mean (±SD) AP functional activity (relative to positive control),[2]; 40 mg single dose,1.25 (±1.153) %
same,time of nadir in AP functional activity post-dose,[2]; 80 mg and 120 mg dose groups,3 h
same,lowest mean (±SD) AP functional activity (relative to positive control),[2]; 80 mg single dose,0.13 (±0.097) %
same,lowest mean (±SD) AP functional activity (relative to positive control),[2]; 120 mg single dose,0.09 (±0.102) %
same,Inhibition of AP functional activity,"[2]; all subjects, by 2 hours post-dose",> 90%
same,Inhibition of AP functional activity,"[2]; all treated subjects, 0.5 hours post-dose",> 80%
same,time mean inhibition of 90% or greater maintained post-dosing,[2]; higher dose groups studied,at least 10 hours
same,Maximum mean plasma concentration,[3]; 40 mg single dose,78.03 ± 19.65 ng/mL
same,"CL/F, GM",[3]; [4],81.26 L/h
same,"CL/F, Mean",[3]; [4],84.27 L/h
same,"t½term, GM",[3]; [4],12.51 h
same,"t½term, Mean",[3]; [4],13.08 h
same,"Aeu, GM",[3]; [5],0.0671 mg
same,"Aeu, Mean",[3]; [5],0.0749 mg
same,"Aeu(%), GM",[3]; [5],0.17%
same,"Aeu(%), Mean",[3]; [5],0.19%
same,Maximum mean plasma concentration,[3]; 80 mg single dose,224.05 ± 108.27 ng/mL
same,"CL/F, GM",[3]; [6],63.52 L/h
same,"CL/F, Mean",[3]; [6],70.25 L/h
same,"t½term, GM",[3]; [6],9.80 h
same,"t½term, Mean",[3]; [6],9.92 h
same,"Aeu, GM",[3]; [7],0.2045 mg
same,"Aeu, Mean",[3]; [7],0.3058 mg
same,"Aeu(%), GM",[3]; [7],0.26%
same,"Aeu(%), Mean",[3]; [7],0.38%
same,Maximum mean plasma concentration,[3]; 120 mg single dose,282.83 ± 89.15 ng/mL
same,"CL/F, GM",[3]; [8],71.87 L/h
same,"CL/F, Mean",[3]; [8],73.25 L/h
same,"t½term, GM",[3]; [8],12.67 h
same,"t½term, Mean",[3]; [8],13.90 h
same,"Aeu, GM",[3]; [9],0.2683 mg
same,"Aeu, Mean",[3]; [9],0.2913 mg
same,"Aeu(%), GM",[3]; [9],0.22%
same,"Aeu(%), Mean",[3]; [9],0.24%
same,last post-dose time point with detected plasma concentration,[3]; all SAD dose groups,72 h
same,CL renal,"[3]; human, plasma and urine, oral, 40 mg to 120 mg single dose, read-out: Renal clearance, geometric mean, range over dose groups",2.67 to 3.17 mL/min
same,AUC(0-inf),"[3]; human, plasma, oral, 40 mg, 40 mg single dose, fasted, plasma, read-out: AUC0-inf, GM",492 ng·h/mL
same,AUC(0-inf),"[3]; human, plasma, oral, 40 mg, 40 mg single dose, fasted, plasma, read-out: AUC0-inf, Mean",514 ng·h/mL
same,Cmax,"[3]; human, plasma, oral, 40 mg, 40 mg single dose, fasted, plasma, read-out: Cmax, GM",85.3 ng/mL
same,Cmax,"[3]; human, plasma, oral, 40 mg, 40 mg single dose, fasted, plasma, read-out: Cmax, Mean",88.6 ng/mL
same,Cmax,"[3]; human, plasma, oral, 40 mg, 40 mg single dose, fasted, plasma, read-out: Cmax, Median",79.1 ng/mL
same,Vd/F,"[3]; human, plasma, oral, 40 mg, 40 mg single dose, fasted, plasma, read-out: Vz/F, GM",1470 L
same,Vd/F,"[3]; human, plasma, oral, 40 mg, 40 mg single dose, fasted, plasma, read-out: Vz/F, Mean",1500 L
same,Tmax,"[3]; human, plasma, oral, 40 mg, 40 mg single dose, fasted, plasma, read-out: tmax, GM",1.65 h
same,Tmax,"[3]; human, plasma, oral, 40 mg, 40 mg single dose, fasted, plasma, read-out: tmax, Mean",1.75 h
same,Tmax,"[3]; human, plasma, oral, 40 mg, 40 mg single dose, fasted, plasma, read-out: tmax, Median",1.5 h
same,AUC(0-inf),"[3]; human, plasma, oral, 80 mg, 80 mg single dose, fasted, plasma, read-out: AUC0-inf, GM",1260 ng·h/mL
same,AUC(0-inf),"[3]; human, plasma, oral, 80 mg, 80 mg single dose, fasted, plasma, read-out: AUC0-inf, Mean",1390 ng·h/mL
same,Cmax,"[3]; human, plasma, oral, 80 mg, 80 mg single dose, fasted, plasma, read-out: Cmax, GM",232 ng/mL
same,Cmax,"[3]; human, plasma, oral, 80 mg, 80 mg single dose, fasted, plasma, read-out: Cmax, Mean",253 ng/mL
same,Cmax,"[3]; human, plasma, oral, 80 mg, 80 mg single dose, fasted, plasma, read-out: Cmax, Median",247 ng/mL
same,Vd/F,"[3]; human, plasma, oral, 80 mg, 80 mg single dose, fasted, plasma, read-out: Vz/F, GM",899 L
same,Vd/F,"[3]; human, plasma, oral, 80 mg, 80 mg single dose, fasted, plasma, read-out: Vz/F, Mean",992 L
same,Tmax,"[3]; human, plasma, oral, 80 mg, 80 mg single dose, fasted, plasma, read-out: tmax, GM",1.85 h
same,Tmax,"[3]; human, plasma, oral, 80 mg, 80 mg single dose, fasted, plasma, read-out: tmax, Mean",2 h
same,Tmax,"[3]; human, plasma, oral, 80 mg, 80 mg single dose, fasted, plasma, read-out: tmax, Median",1.75 h
same,AUC(0-inf),"[3]; human, plasma, oral, 120 mg, 120 mg single dose, fasted, plasma, read-out: AUC0-inf, GM",1670 ng·h/mL
same,AUC(0-inf),"[3]; human, plasma, oral, 120 mg, 120 mg single dose, fasted, plasma, read-out: AUC0-inf, Mean",1710 ng·h/mL
same,Cmax,"[3]; human, plasma, oral, 120 mg, 120 mg single dose, fasted, plasma, read-out: Cmax, GM",303 ng/mL
same,Cmax,"[3]; human, plasma, oral, 120 mg, 120 mg single dose, fasted, plasma, read-out: Cmax, Mean",316 ng/mL
same,Cmax,"[3]; human, plasma, oral, 120 mg, 120 mg single dose, fasted, plasma, read-out: Cmax, Median",260 ng/mL
same,Vd/F,"[3]; human, plasma, oral, 120 mg, 120 mg single dose, fasted, plasma, read-out: Vz/F, GM",1310 L
same,Vd/F,"[3]; human, plasma, oral, 120 mg, 120 mg single dose, fasted, plasma, read-out: Vz/F, Mean",1460 L
same,Tmax,"[3]; human, plasma, oral, 120 mg, 120 mg single dose, fasted, plasma, read-out: tmax, GM",2.54 h
same,Tmax,"[3]; human, plasma, oral, 120 mg, 120 mg single dose, fasted, plasma, read-out: tmax, Mean",2.58 h
same,Tmax,"[3]; human, plasma, oral, 120 mg, 120 mg single dose, fasted, plasma, read-out: tmax, Median",2.75 h
same,half-life,"[3]; human, plasma, oral, 40 mg to 120 mg single dose, read-out: Mean terminal elimination half-life (t1/2 term), range over dose groups",595 to 834 min
same,Tmax,"[3]; human, plasma, oral, 40 mg to 120 mg single dose, read-out: Median tmax, range over dose groups",1.5 to 2.75 h
same,CL renal,"[3]; human, urine, oral, 40 mg, 40 mg single dose, fasted, urine, read-out: CLr, GM (converted)",2.67 mL/min
same,CL renal,"[3]; human, urine, oral, 40 mg, 40 mg single dose, fasted, urine, read-out: CLr, Mean (converted)",2.67 mL/min
same,CL renal,"[3]; human, urine, oral, 80 mg, 80 mg single dose, fasted, urine, read-out: CLr, GM (converted)",3 mL/min
same,CL renal,"[3]; human, urine, oral, 80 mg, 80 mg single dose, fasted, urine, read-out: CLr, Mean (converted)",3.5 mL/min
same,CL renal,"[3]; human, urine, oral, 120 mg, 120 mg single dose, fasted, urine, read-out: CLr, GM (converted)",3.17 mL/min
same,CL renal,"[3]; human, urine, oral, 120 mg, 120 mg single dose, fasted, urine, read-out: CLr, Mean (converted)",3.5 mL/min
